Results reported in patent US7556938B1, “Nucleic acids encoding potassium channel interactors” (Millennium Pharmaceuticals, Inc., priority 1998, dated 2009).

Experiments:
[1] = system: Kv4.3; assay: Fatty acid modulation of Kv4.3 current (Kv4.3 alone) in Xenopus oocytes; assay type: cell-based, rat
Procedure: Frogs underwent no more than two surgeries and surgeries were performed by well established techniques. Frogs were anesthetized with ice. Total cRNA (1-10 ng) was injected into stage IV Xenopus oocytes that were harvested the previous day. The Xenopus oocytes were incubated in ND96 containing (in mM) 96 NaCl, 2 KCl, 1.8 CaCl2, 1 MgCl2, 5 HEPES, pH 7.6, plus (Gentamycin 50 μg/ml) at 18° C. Xenopus oocytes were studied 3-7 days after injection. The two-electrode voltage-clamp recordings were performed in ND96 solution using a TURBO TEC 03 Clamp Amplifier (ALA Scientific Instruments, Westbury, N.Y.). Both electrodes were filled with 3 M KCl and had electrode resistances ranging from 0.2-1 MOhm. The current signals were filtered at 1000 Hz before transferred on a PC (Gateway, Calif.) using the PULSE software (HEKA, Germany). In this Example, the hypothesis that […] were the missing auxiliary subunits that accounted for the above kinetic discrepancy was investigated by expressing Kv4 alone or together with […] in both CHO cells and Xenopus oocytes, and measuring their inactivation time constants (using art known techniques as described in, for example, An et al. (2000) Nature 403:553-6; Keros, S. and […]. Neuroscience 17: 3476-87; and Villarroel, A. and […]. Neuroscience 16:2522-32). The effects of different concentrations of arachidonic acid on Kv4/KChIP current was studied in Xenopus oocytes. Because the physiological concentrations of arachidonic acid are often under 10 μM (Needleman, et al., 1986 Annu Rev Biochem 55:69-102; Anderson and Welsh, 1990, Proc Natl Acad Sci USA 87:7334-8; Meves, 1994, Prog Neurobiol 43:175-86), arachidonic acid was tested in the 1-10 μM range. […] Further, the slope of amplitude reduction as a function of increasing concentrations was very similar with or without the presence of […]. […] Villarroel and Schwarz, (1996) J.

[2] = target: T1, Kv1.1 (Rattus norvegicus, UniProt P10499); assay: AA modulation of Kv1.1 current in Xenopus oocytes; assay type: cell-based; settings: Kv1.1 alone, 10 μM AA
T1 construct: expressed in transfected cells; host or cells: Xenopus oocytes
Procedure: Frogs underwent no more than two surgeries and surgeries were performed by well established techniques. Frogs were anesthetized with ice. Total cRNA (1-10 ng) was injected into stage IV Xenopus oocytes that were harvested the previous day. The Xenopus oocytes were incubated in ND96 containing (in mM) 96 NaCl, 2 KCl, 1.8 CaCl2, 1 MgCl2, 5 HEPES, pH 7.6, plus (Gentamycin 50 μg/ml) at 18° C. Xenopus oocytes were studied 3-7 days after injection. The two-electrode voltage-clamp recordings were performed in ND96 solution using a TURBO TEC 03 Clamp Amplifier (ALA Scientific Instruments, Westbury, N.Y.). Both electrodes were filled with 3 M KCl and had electrode resistances ranging from 0.2-1 MOhm. The current signals were filtered at 1000 Hz before transferred on a PC (Gateway, Calif.) using the PULSE software (HEKA, Germany).
In this example, the foregoing was tested by measuring two alpha/auxiliary complexes: Kv4.3/KChIP1 and Kv1.1/Kvβ1. (Kvβ1, which is one of the classic potassium channel beta subunits, dramatically changes Kv1.1 kinetics). Kv4.3/KChIP and Kv1.1/Kvβ1 were expressed respectively in Xenopus oocytes and their resulting currents were recorded in the presence or absence of […] AA. […] Kinetically, […] was much more sensitive to AA modulation than was Kv1.1/Kvβ1 (Table 4).

[3] = target: T2, interaction between N-terminal domain of Kv4.3 and KChIP1 (Rattus norvegicus, UniProt Q62897+Q8R426); assay: Biosensor (Biacore) in vitro binding of KChIP1 to GST-Kv4.3N with and without arachidonic acid; settings: 10 μM arachidonic acid, 1 μM KChIP1
T2 construct: The intracellular N-terminal domain of Kv4.3 was expressed as a GST fusion protein (GST-Kv4.3N); GST (N, cleaved yes); made in house; host or cells: E. coli
T2 sequence (Q62897 1-182 limits assumed): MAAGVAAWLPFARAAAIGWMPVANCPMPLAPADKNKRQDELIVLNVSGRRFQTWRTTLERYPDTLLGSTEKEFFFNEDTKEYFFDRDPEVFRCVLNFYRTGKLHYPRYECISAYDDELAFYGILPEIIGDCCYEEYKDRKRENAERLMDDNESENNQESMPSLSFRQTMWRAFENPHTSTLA
T2 sequence (Q8R426 1-216 isoform Q8R426-2): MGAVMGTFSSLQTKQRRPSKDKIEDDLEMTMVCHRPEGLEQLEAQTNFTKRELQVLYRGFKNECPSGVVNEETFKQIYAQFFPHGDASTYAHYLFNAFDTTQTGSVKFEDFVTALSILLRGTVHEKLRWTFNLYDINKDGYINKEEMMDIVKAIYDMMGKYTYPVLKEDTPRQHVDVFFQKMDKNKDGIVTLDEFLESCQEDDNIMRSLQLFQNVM
Excerpt: The N-terminal domain of rat Kv4.3 was expressed as a GST fusion (GST-Kv4.3N) and purified from E. coli essentially following protocols provided by Amersham Pharmacia Biotech (Piscataway, N.J.). Recombinant rat KChIP1 protein was first expressed and purified as a GST-fusion, then the GST moiety was cleaved using PreScission protease (Amersham Pharmacia Biotech) to give rise to the free KChIP1 protein. Both GST-Kv4.3N and KChIP proteins were >95% pure as estimated by coomassie stain of denaturing gels. In vitro binding assays were performed using a Biacore 3000 from Biacore AB in Uppsala, Sweden. The experiments were performed in phosphate buffered saline (PBS), pH 7.4, with 1 mM CaCl2 and 0.05% polysorbate P-20. Anti-GST antibody (Biacore AB) was coupled to 3 flowcells of a CM-5 chip (Biacore AB) at a level of 2000 resonance units (RUs) using amine coupling. […]
To test the hypothesis that arachidonic acid acts by interfering with the binding between Kv4 and KChIPs, the surface plasmon resonance measurement (Biosensor) was first used to monitor the association and dissociation phases of Kv4-KChIP interaction in the presence and absence of arachidonic acid. The intracellular N-terminal domain of Kv4.3 was expressed as a GST fusion protein (GST-Kv4.3N) and immobilized to the surface of a Biosensor chip. […]

T1 sequence (P10499 whole entry): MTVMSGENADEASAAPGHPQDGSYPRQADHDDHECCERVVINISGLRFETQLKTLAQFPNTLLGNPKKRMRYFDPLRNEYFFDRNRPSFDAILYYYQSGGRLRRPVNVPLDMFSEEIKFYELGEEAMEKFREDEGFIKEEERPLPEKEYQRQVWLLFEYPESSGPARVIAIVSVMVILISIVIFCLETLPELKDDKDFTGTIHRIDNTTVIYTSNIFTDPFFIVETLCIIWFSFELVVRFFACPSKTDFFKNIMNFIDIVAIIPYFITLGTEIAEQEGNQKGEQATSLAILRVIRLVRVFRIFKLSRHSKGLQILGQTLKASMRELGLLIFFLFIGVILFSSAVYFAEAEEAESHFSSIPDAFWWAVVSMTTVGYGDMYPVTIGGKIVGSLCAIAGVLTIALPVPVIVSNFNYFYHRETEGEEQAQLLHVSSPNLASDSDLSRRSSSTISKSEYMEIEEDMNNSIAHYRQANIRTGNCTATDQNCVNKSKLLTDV

CCCCC/C=C\C/C=C\C/C=C\C/C=C\CCCC(=O)O [arachidonic acid]
Inactivation time constant (ms ± SEM) ([1]; Kv4.3 alone, 10 μM AA): 66 ± 6 ms
Peak amplitude (μA ± SEM) ([1]; Kv4.3 alone, 10 μM AA): 13 ± 1 μA
block of Kv4.3 peak amplitude ([1]; Kv4.3 alone, 10 μM fatty acid, vs no-fatty acid control): inhibited significantly
block of Kv4.3 peak amplitude ([1]; Kv4.3 alone, 1-10 μM arachidonic acid): concentration-dependent block
effect on inactivation time constant ([1]; absence of KChIP1, 1-10 μM arachidonic acid): unchanged at all arachidonic acid concentrations tested
Peak amplitude (μA ± SEM) [2]: 21 ± 3 μA
effect on association and dissociation phase of KChIP1 binding to GST-Kv4.3N [3]: a qualitative difference aws not observed
